From the supplement of paper PMC11208160

Assay: recombinant barcode read abundance after kanamycin selection (control-corrected) (log10(CPM+1)); higher = more efficient recombination; sequences stand for … in AGTGCAGAGAAAATCGGCCAGTTTTCTCTGCCTGCAGTCCGCATGCCGT…AGATTTATGCAGCGGACTGCCTTTCTCCCAAAGTGATAAACCGGACAGTATCATGGACCGGTTTTCCCGGTAATCCGTATTTGCAAGGTTGGTTTCACT; site = the 11-nt target
Method in brief: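 For this pooled screen, each oligo contained a promoter, a target, a barcode and the J23119-driven first 104 bases of the bridge RNA. Gibson cloning placed it into a vector supplying the remaining 73 bp and a T7-inducible recombinase, and the pool was co-electroporated into E. coli with a donor plasmid. Recombination efficiency is derived from barcode counts per million at recombinant junctions after averaging and control correction, and is expressed on a log scale as log10(CPM+1), with selection on chloramphenicol/ampicillin/kanamycin plus 0.1 mM IPTG against a chloramphenicol/ampicillin LB agar control.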
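Further: IS621 recombinase and bridge RNA in Escherichia coli cells.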

Row | Sequence | recombinant barcode read abundance (log10)
1 | CTTAGGACTTGGGTTCTAACCTGTTGCCG (site CTTAGGACTTG) | 0.199
2 | TGTGCGTCTTGGGTTCTAACCTGTTGCCT (site TGTGCGTCTAG) | 0.801
3 | CTCTTGACTTGGGTTCTAACCTGTTGCTT (site CTCTTGACTAA) | 0.871
4 | ATGCGAGCTTGGGTTCTAACCTGTTGCAG (site ATGCGAGCTCG) | 0.549
5 | GCCCGGGCTTGGGTTCTAACCTGTTGCGG (site GGCCGGGCTCC) | 0.022
6 | GGCGTAGCTTGGGTTCTAACCTGTTGCCT (site GTCGTAGCTAG) | 0.227
7 | ATCGAGTCTTGGGTTCTAACCTGTTGCCA (site ATCGAGTCTTG) | 0.276
8 | GGGACATCTTGGGTTCTAACCTGTTGCCT (site GGGACATCTAG) | 0.987
9 | TATGCGGCTTGGGTTCTAACCTGTTGCCT (site TATGGGGCTAG) | 0.193
10 | TAGTGTCCTTGGGTTCTAACCTGTTGCCT (site TAGTGTTCTAG) | 0.405
11 | TTGATTGCTTGGGTTCTAACCTGTTGCCT (site TTGACTGCTAG) | 0.0306
12 | GATAGACCTTGGGTTCTAACCTGTTGCCT (site CATAGACCTAG) | 0.126
13 | GCGGCGACTTGGGTTCTAACCTGTTGCCT (site GCTGCGACTAG) | 0.0436
14 | ATAGGTCCTTGGGTTCTAACCTGTTGCTG (site ATAGGTCCTCA) | 2.91
15 | GCCGGGCCTTGGGTTCTAACCTGTTGCCT (site GCTGCGCCTAG) | 0.0616
16 | TGGAACACTTGGGTTCTAACCTGTTGCCT (site TGGAGCACTAG) | 0.0596
17 | CCTTGCACTTGGGTTCTAACCTGTTGCGA (site CCTTGCACTTC) | 0.409
18 | TATTGGACTTGGGTTCTAACCTGTTGCAG (site TATTGGACTCT) | 1.05
19 | ATTTGCCCTTGGGTTCTAACCTGTTGCCT (site ATTTGCCCTAG) | 0.122
20 | TATTTGCCTTGGGTTCTAACCTGTTGCCT (site TATTTGCCTAG) | 0
21 | TACTCTTCTTGGGTTCTAACCTGTTGCCT (site GGTCAACCTCC) | 0.0368
22 | TCGTCCTCTTGGGTTCTAACCTGTTGCCT (site TCGTCATCTAG) | 0.225

Row | Sequence | recombinant barcode read abundance (log10)
23 | AGCTCCTCTTGGGTTCTAACCTGTTGCCT (site TGCTCCTCTAG) | 0.0453
24 | GAGGAAGCTTGGGTTCTAACCTGTTGCCT (site GGGGAAGCTAG) | 0.316
25 | TCGTCACCTTGGGTTCTAACCTGTTGCCT (site ACGTCACCTAG) | 0
26 | ATCTTGTCTTGGGTTCTAACCTGTTGCCT (site ATCTTGTCTAG) | 0.977
27 | TGTGCGTCTTGGGTTCTAACCTGTTGCCT (site CGTGCGTCTAG) | 0.136
28 | GACAAGTCTTGGGTTCTAACCTGTTGCCT (site GACAAGTCTAG) | 1.14
29 | GGGCCTACTTGGGTTCTAACCTGTTGCTT (site GGGCCTACTAA) | 0.914
30 | ACGTTGCCTTGGGTTCTAACCTGTTGCCT (site ACCTTGCCTAG) | 0.0523
31 | CTGATAACTTGGGTTCTAACCTGTTGCCT (site CTGATGACTAG) | 0.0814
32 | CCTCGGACTTGGGTTCTAACCTGTTGCAT (site CCTCGGACTAT) | 1.59
33 | TCGTCACCTTGGGTTCTAACCTGTTGCCT (site TCGTCACCTAG) | 0.348
34 | TAACTTACTTGGGTTCTAACCTGTTGCAT (site TAACCTACTAT) | 0.0991
35 | TGGCTGTCTTGGGTTCTAACCTGTTGCCT (site TGGCTGTCTAG) | 1.2
36 | CCACTCCCTTGGGTTCTAACCTGTTGCCT (site CCACTACCTAG) | 0.166
37 | ATCGTACCTTGGGTTCTAACCTGTTGCTA (site CAAAAGGCTAG) | 0.973
38 | CTTCGCACTTGGGTTCTAACCTGTTGCCT (site CCTCGCACTAG) | 0.0814
39 | TTACGTGCTTGGGTTCTAACCTGTTGCGG (site TTACGGGCTCC) | 0.67
40 | ATTTGCCCTTGGGTTCTAACCTGTTGCCT (site AATTGCCCTAG) | 0.222
41 | CCTCGCACTTGGGTTCTAACCTGTTGCGA (site CCTCGCACTTC) | 0.112
42 | CATAGTCCTTGGGTTCTAACCTGTTGCCA (site GTACAATCTCT) | 0.112
43 | GTCGTTGCTTGGGTTCTAACCTGTTGCCT (site TTCGTTGCTAG) | 1.19
44 | GGTCATCCTTGGGTTCTAACCTGTTGCCT (site GGTCATACTAG) | 0.127

Row | Sequence | recombinant barcode read abundance (log10)
45 | TCGTTCGCTTGGGTTCTAACCTGTTGCCT (site TCCTTCACTAG) | 0.0905
46 | TTGAGGCCTTGGGTTCTAACCTGTTGCGG (site TCGAGTCCTCC) | 0.141
47 | CCTCAGTCTTGGGTTCTAACCTGTTGCTT (site CCTCAATCTAA) | 0.441
48 | TGTCGAGCTTGGGTTCTAACCTGTTGCCG (site TGTGGAGCTCG) | 0.0604
49 | AATGGGGCTTGGGTTCTAACCTGTTGCCT (site AATGGGACTAG) | 0.369
50 | GTGCGCTCTTGGGTTCTAACCTGTTGCGC (site CCAGCTGCTAG) | 0.0659
51 | GAGTGAGCTTGGGTTCTAACCTGTTGCAT (site GAGTGAGCTAT) | 2.53
52 | AGCACAACTTGGGTTCTAACCTGTTGCCT (site AGGACAACTAG) | 0.0445
53 | CCGCATGCTTGGGTTCTAACCTGTTGCCT (site CCGGATGCTAG) | 0.0172
54 | AGTCTAGCTTGGGTTCTAACCTGTTGCCC (site AGTCTAGCTGG) | 1.11
55 | CCGCCTCCTTGGGTTCTAACCTGTTGCAT (site CCGCCTCCTAT) | 0.0412
56 | CTAAGGCCTTGGGTTCTAACCTGTTGCAT (site CTAAGGCCTAT) | 1.85
57 | TCCGTGTCTTGGGTTCTAACCTGTTGCCT (site TCCGTGACTAG) | 0.0308
58 | CCGTCTACTTGGGTTCTAACCTGTTGCTT (site CCGTCTACTCA) | 0.457
59 | GACGGATCTTGGGTTCTAACCTGTTGCAT (site GACGGATCTAT) | 1.09
60 | GTTTGACCTTGGGTTCTAACCTGTTGCGG (site GTTTGACCTCC) | 1.47
61 | ACTCCGTCTTGGGTTCTAACCTGTTGCTA (site GCTCCGTCTAA) | 0.0432
62 | TCGGAGTCTTGGGTTCTAACCTGTTGCTT (site TCGGAGTCTAA) | 1.87
63 | TAGTCTCCTTGGGTTCTAACCTGTTGCGT (site TAGTATCCTAC) | 0.227
64 | TGTAATTCTTGGGTTCTAACCTGTTGCCT (site TGTAATACTAG) | 0.139
65 | CAAACCGCTTGGGTTCTAACCTGTTGCCT (site CCAACCGCTAG) | 0.0884
66 | AGGGCGCCTTGGGTTCTAACCTGTTGCCT (site ACGGCGCCTAG) | 0.173

Row | Sequence | recombinant barcode read abundance (log10)
67 | TGAGTCCCTTGGGTTCTAACCTGTTGCTT (site TGAGTCCCTAA) | 1.67
68 | TTGGGCGCTTGGGTTCTAACCTGTTGCCT (site TTGGGCGCTAG) | 0.643
69 | CTCCCTACTTGGGTTCTAACCTGTTGCAG (site CTCCCAACTCG) | 0.072
70 | GCTTCACCTTGGGTTCTAACCTGTTGCCT (site GCTTCACCTAG) | 0.853
71 | ACAGGTCCTTGGGTTCTAACCTGTTGCGA (site ACAGGTCCTTC) | 3.05
72 | CTGCGTACTTGGGTTCTAACCTGTTGCCG (site CTGCGTACTCG) | 0.365
73 | AGGGCGCCTTGGGTTCTAACCTGTTGCCT (site AAGGCGCCTAG) | 0.0579
74 | CTTCACCCTTGGGTTCTAACCTGTTGCCT (site CTTCAACCTAG) | 0.134
75 | TGTCGAGCTTGGGTTCTAACCTGTTGCCG (site TGTAGAGCTCG) | 0.0366
76 | AAGATACCTTGGGTTCTAACCTGTTGCTG (site AAGATACCTCA) | 1.76
77 | TTAGAGTCTTGGGTTCTAACCTGTTGCCT (site TTAGAGTCTAG) | 2.08
78 | GAGGAACCTTGGGTTCTAACCTGTTGCCT (site TAGGAACCTAG) | 1.44
79 | TCCCAAGCTTGGGTTCTAACCTGTTGCTA (site TCCCAAGCTTA) | 1.32
80 | GTAAGCTCTTGGGTTCTAACCTGTTGCCT (site GTAAGCTCTAG) | 2.15
81 | TACGGCTCTTGGGTTCTAACCTGTTGCTT (site TACCGCTCTAA) | 0.0429
82 | GGACCTCCTTGGGTTCTAACCTGTTGCCT (site GGACCTCCTAC) | 0.251
83 | GAGACAGCTTGGGTTCTAACCTGTTGCCT (site GAAACAGCTAG) | 0.367
84 | AGCTCCTCTTGGGTTCTAACCTGTTGCCT (site CGCTCCTCTAG) | 0.144
85 | CATGATTCTTGGGTTCTAACCTGTTGCCT (site CATCATTCTAG) | 0.087
86 | CAAACCGCTTGGGTTCTAACCTGTTGCCT (site CAAACCGCTAG) | 1.14
